Values quoted from earlier work, collected in patent publication US20060003361A1, “SMVT transporters expressed in cancer cells” (Xenoport, Inc., priority 2004, published 2006).

Biological target: T1, SMVT (Homo sapiens, UniProt Q9Y289)
T1 sequence (Q9Y289 1-635): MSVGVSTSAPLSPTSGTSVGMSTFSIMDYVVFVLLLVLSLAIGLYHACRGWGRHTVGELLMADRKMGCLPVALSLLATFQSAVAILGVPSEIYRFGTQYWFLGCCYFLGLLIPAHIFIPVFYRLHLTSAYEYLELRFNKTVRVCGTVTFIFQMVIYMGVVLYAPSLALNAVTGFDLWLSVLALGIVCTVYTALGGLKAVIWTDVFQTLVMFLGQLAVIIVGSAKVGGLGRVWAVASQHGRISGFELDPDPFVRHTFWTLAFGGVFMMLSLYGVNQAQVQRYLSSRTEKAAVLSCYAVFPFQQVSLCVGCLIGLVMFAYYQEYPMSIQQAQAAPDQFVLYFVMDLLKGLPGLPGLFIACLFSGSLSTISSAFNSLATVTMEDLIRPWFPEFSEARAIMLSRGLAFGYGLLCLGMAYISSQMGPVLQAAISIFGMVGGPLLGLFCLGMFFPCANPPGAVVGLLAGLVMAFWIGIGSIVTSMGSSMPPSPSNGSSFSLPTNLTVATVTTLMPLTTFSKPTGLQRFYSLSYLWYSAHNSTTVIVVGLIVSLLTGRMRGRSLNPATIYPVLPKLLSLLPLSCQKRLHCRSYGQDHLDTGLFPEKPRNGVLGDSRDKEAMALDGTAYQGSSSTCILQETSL

Row | Compound | Reported Affinity for SMVT
1 | O=C(O)CCCc1ccccc1 [4-phenyl-butyric acid] | 0.04 mM
2 | O=C(O)CCCC[C@@H]1SC[C@@H]2NC(=O)N[C@@H]21 [Biotin] | 0.01 mM
3 | CC(C)(CO)[C@@H](O)C(=O)NCCC(=O)O [Pantothenic acid] | 0.03 mM
